# Assay results as given in paper PMC12731165, “Dual Modulation of Cardiac Ion Pumps: A Small-Molecule SERCA2a SUMOylation Enhancer Also Inhibits the Na^+/K^+-ATPase” (Biomedicines, 2025).
# Tests used:
# [1] = biological target: T1, Na^+/K^+-ATPase (NKA), α1 isoform (Sus scrofa, UniProt P05024); assay: ouabain-sensitive ATP hydrolysis ([…] ouabain), NADH-coupled assay; format: biochemical
# T1 construct: gene ATP1A1; native enzyme purified from porcine kidney outer medulla (α/β heterodimer); with NKA β-subunit (α/β heterodimer)
# [2] = biological target: T1, Na^+/K^+-ATPase (NKA), α1 isoform; assay: ouabain-sensitive ATPase activity, NADH-coupled assay at […] nm, […] °C; format: biochemical
Structure (SMILES),"ouabain-sensitive ATP hydrolysis (500 μM ouabain), NADH-coupled assay [1]",IC50 [2] [µM]
C[C@@H]1O[C@@H](O[C@H]2C[C@@H](O)[C@]3(CO)[C@H]4[C@H](O)C[C@]5(C)[C@@H](C6=CC(=O)OC6)CC[C@]5(O)[C@@H]4CC[C@]3(O)C2)[C@H](O)[C@H](O)[C@H]1O [ouabain],The enzymatic activity was verified through ouabain (OUA)-sensitive ATP hydrolysis assays prior to use in experiments.,
"COc1ccc(-c2nnc(Nc3nc4c(OC)cccc4s3)o2)cc1 [N106, N-(4-methoxy-1,3-benzothiazol-2-yl)-5-(4-methoxyphenyl)-1,3,4-oxadiazol-2-amine]",,7 ± 1
